Data reported in patent publication US12691101B2, “Compound and method for preventing or treating of respiratory diseases comprising the same as an active ingredient” (YONSEI UNIVERSITY, UNIVERSITY - INDUSTRY FOUNDATION (UIF), priority 2019, dated 2026).

target: T1, human wild-type (WT)-pendrin (Homo sapiens, UniProt O43511); test: Pendrin-mediated Cl^−/I^− exchange activity, YFP fluorescence in CHO-K1 cells; assay type: cell-based; settings: CHO-K1, 30 μM; read-out: Pendrin inhibitory activity at 30 μM (%)
T1 construct: expressed in transfected cells
T1 sequence (O43511 1-780): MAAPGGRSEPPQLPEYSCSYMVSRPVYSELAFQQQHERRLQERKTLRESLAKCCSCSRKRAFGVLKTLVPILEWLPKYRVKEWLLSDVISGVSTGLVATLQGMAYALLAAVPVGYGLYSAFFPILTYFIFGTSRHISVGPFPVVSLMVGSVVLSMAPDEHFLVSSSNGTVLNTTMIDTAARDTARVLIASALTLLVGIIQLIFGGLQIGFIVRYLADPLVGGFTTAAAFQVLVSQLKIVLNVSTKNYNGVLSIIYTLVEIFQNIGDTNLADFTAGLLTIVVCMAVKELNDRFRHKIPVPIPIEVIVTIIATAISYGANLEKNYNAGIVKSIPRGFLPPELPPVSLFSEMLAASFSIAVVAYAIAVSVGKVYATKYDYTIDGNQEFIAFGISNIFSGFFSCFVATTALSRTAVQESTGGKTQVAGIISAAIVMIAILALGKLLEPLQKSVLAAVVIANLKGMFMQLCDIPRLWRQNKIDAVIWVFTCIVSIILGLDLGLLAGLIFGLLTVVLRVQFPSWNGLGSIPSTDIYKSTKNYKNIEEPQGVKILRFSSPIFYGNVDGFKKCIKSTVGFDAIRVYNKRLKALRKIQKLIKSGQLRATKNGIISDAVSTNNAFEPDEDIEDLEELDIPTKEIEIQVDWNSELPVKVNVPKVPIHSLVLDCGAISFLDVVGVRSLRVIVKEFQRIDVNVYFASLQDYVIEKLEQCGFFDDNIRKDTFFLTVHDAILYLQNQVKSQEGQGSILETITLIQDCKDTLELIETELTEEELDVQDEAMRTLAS
Experimental: Chinese hamster ovary (CHO)-K1 cells were maintained in a DMEM medium containing 10% fetal bovine serum (FBS), 100 units/ml penicillin and 100 100 μg/ml streptomycin. CHO-K1 cells were stably transfected with pcDNA3.1 encoding halide sensor YFP-H148Q/I152L/F46L and human wild-type (WT)-pendrin. For distribution of primary culture of human nasal cavity epithelium (HNE) cells, passage-2 cells were seeded into transwell-transparent culture inserts with a pore size of 0.45 μm (Costar Co., Cambridge, MA) at a density of 2×10^5 cells/cm^2. The cells were maintained in a 1:1 mixture of Dulbecco's modified Eagle's medium (Lonza, Walkersville, MD) and bronchial epithelial growth medium (Lonza) supplemented with the following growth factors according to the manufacturer's instructions. After immersing the cells for the first 7 days, they were exposed to the apical air interface for the remainder of the culture period. After establishment of the air-liquid interface, the cells were used between 14 and 21 days. At all stages of culture, the cells were maintained at 37° C. under 5% CO2 in an air incubator.
CHO-K1 cells expressing human WT pendrin and YFP-F46L/H148Q/I152L were plated on a 96-well microplate at a density of 2×10^4 cells per well and cultured for 48 hours. Each well of the cell cultured 96-well plate was washed with PBS of 200 μL twice and was filled with HEPES buffer solution of 50 μL, respectively. […] After culturing at 37° C. for 10 minutes, the 96-well plate was positioned on FLUOstar Omega microplate reader (BMG Labtech, Ortenberg, Germany) for fluorescence analysis. By continuously (400 ms per point) recording fluorescence for 1 second (base line), each well was individually analyzed for pendrin-mediated I^− inflow, and then at 1 second, 50 μL of NaI-substituted HEPES buffer solution (NaI replacing NaCl) was added using a liquid injector and the YFP fluorescence was recorded for 5 seconds. The initial iodide inflow rate was determined from the initial slope of fluorescence by nonlinear regression, after injection the iodide (See FIG. 1).
For measurement of Cl^−/I^− exchange activity, YFP fluorescence was measured in pendrin and halide sensor YFP expressing CHO-K1 cells. Each well of the cell cultured 96-well plate was washed with PBS of 200 μL twice, and was filled with HEPES buffer solution (140 mM NaCl, 5 mM KCl, 1 mM MgCl2, 1 mM CaCl2, 10 mM glucose and 10 mM HEPES (pH 7.4)), respectively. […] After culturing at 37° C. for 10 minutes, the 96-well plate was positioned on FLUOstar Omega microplate reader (BMG Labtech, Ortenberg, Germany) for fluorescence analysis.
By continuously (400 ms per point) recording fluorescence for 1 second (base line), each well was individually analyzed for pendrin-mediated I^− inflow, and then at 1 second, 50 μL of NaI-substituted HEPES buffer solution (140 mM NaI, 5 mM KCl, 1 mM MgCl2, 1 mM CaCl2, 10 mM glucose and 10 mM HEPES (pH 7.4)) was added using a liquid injector and the YFP fluorescence was recorded for 5 seconds. The initial iodide inflow rate was determined from the initial slope of fluorescence by nonlinear regression, after injection the iodide.

Row | Structure (SMILES) | inhibition at 30 µM
1 | O=C1OC(c2ccc(Br)cc2)=NC1=Cc1ccco1 [F50, 2-(4-Bromophenyl)-4-(furan-2-ylmethylene)oxazol-5 (4H)-one] | 3.7%
2 | O=C1OC(c2ccc(Cl)c([N+](=O)[O-])c2)=NC1=Cc1cccs1 [F91, 2-(4-Chloro-3-nitrophenyl)-4-(thiophen-2-ylmethylene)oxazol-5(4H)-one] | 3.9%
3 | O=C1OC(C2CCCCC2)=NC1=Cc1cccs1 [F23, 2-Cyclohexyl-4-(thiophen-2-ylmethylene)oxazol-5 (4H)-one] | 2.1%
4 | O=C1OC(c2ccc3ccccc3c2)=NC1=Cc1cnn(Cc2ccccc2Cl)c1 [F123, 4-((1-(2-Chlorobenzyl)-1H-pyrazol-4-yl)methylene)-2-(naphthalen-2-yl)oxazol-5 (4H)-one] | 2.4%
5 | Cc1[nH]c2ccccc2c1C=C1N=C(c2ccc(C(C)(C)C)cc2)OC1=O [F3, 2-(4-(tert-butyl)phenyl)-4-((2-methyl-1H-indol-3-yl1)methylene)oxazol-5(4H)-one] | 4.3%
6 | CC(C)(C)c1ccc(C2=NC(=Cc3cc4ccccc4[nH]3)C(=O)O2)cc1 [F140, 4-((1H-indol-2-yl)methylene)-2-(4-(tert-butyl)phenyl)oxazol-5(4H)-one] | 3.3%
7 | CC(C)Cc1ccc(C2=NC(=Cc3ccsc3)C(=O)O2)cc1 [F15, 2-(4-Isobutylphenyl)-4-(thiophen-3-ylmethylene)oxazol-5 (4H)-one] | 3.8%
8 | Cc1ncsc1C=C1N=C(c2ccc(C(C)(C)C)cc2)OC1=O [F8, 2-(4-(tert-butyl)phenyl)-4-((4-methylthiazol-5-yl)methylene)oxazol-5 (4H)-one] | 72.5%
9 | CN(C)c1ccc(C=C2N=C(c3ccc4ccccc4c3)OC2=O)s1 [F105, 4-((5-(Dimethylamino)thiophen-2-yl)methylene)-2-(naphthalen-2-yl)oxazol-5(4H)-one] | 3.1%
10 | CCCCc1ccc(C2=NC(=Cc3ccco3)C(=O)O2)cc1 [F54, 2-(4-Butylphenyl)-4-(furan-2-ylmethylene)oxazol-5 (4H)-one] | 2.6%
11 | CCCCOc1ccc(C(=O)NC(=Cc2cccs2)C(=O)O)cc1 [G36, 2-(4-Butoxybenzamido)-3-(thiophen-2-yl)acrylate] | 4.8%
12 | O=C1OC(Cc2ccc(-c3ccccc3)cc2)=NC1=Cc1ccc[nH]1 [F25, 4-((1H-pyrrol-2-yl)methylene)-2-([1,1′-biphenyl]-4-ylmethyl)oxazol-5(4H)-one] | 3.8%
13 | COc1ccccc1C1=NC(=Cc2ccc(N(C)C)s2)C(=O)O1 [F114, 4-((5-(Dimethylamino)thiophen-2-yl)methylene)-2-(2-methoxyphenyl)oxazol-5(4H)-one] | 3.9%
14 | CC(=O)Oc1ccc(C=C2N=C(c3ccc(C(C)(C)C)cc3)OC2=O)cc1 [F58, 4-((2-(4-(tert-butyl)phenyl)-5-oxooxazol-4 (5H)-ylidene)methyl)phenylacetate] | 2.5%
15 | CC(C)(C)c1ccc(C2=NC(=Cc3ccncc3)C(=O)O2)cc1 [F41, 2-(4-(tert-butyl)phenyl)-4-(pyridin-4-ylmethylene)oxazol-5(4H)-one] | 27.5%
16 | COc1ccc2cc(C=C3N=C(c4ccccc4)OC3=O)c(=O)[nH]c2c1 [F74, 4-((7-Methoxy-2-oxo-1,2-dihydroquinolin-3-yl)methylene)-2-phenyloxazol-5(4H)-one] | 2.4%
17 | N#Cc1ccc(C2=NC(=Cc3cccs3)C(=O)O2)cc1 [F5, 4-(5-Oxo-4-(thiophen-2-ylmethylene)-4,5-dihydrooxazol-2-yl)benzonitrile] | 3.5%
18 | CCOc1ccc2nc(Sc3ccccc3)c(C=C3N=C(c4ccccc4)OC3=O)cc2c1 [F70, 4-((6-Ethoxy-2-(phenylthio)quinolin-3-yl)methylene)-2-phenyloxazol-5(4H)-one] | 3.1%
19 | O=C1OC(c2ccccc2)=NC1=Cc1ccccc1[N+](=O)[O-] [F57, 4-(2-Nitrobenzylidene)-2-phenyloxazol-5(4H)-one] | 16.1%
20 | CC(C)(C)c1ccc(C2=NC(=Cc3ccc(-c4cccc(C(F)(F)F)c4)o3)C(=O)O2)cc1 [F73, 2-(4-(tert-butyl)phenyl)-4-((5-(3-(trifluoromethyl)phenyl)furan-2-yl)methylene)oxazol-5(4H)-one] | 2.9%
21 | CC(=O)Nc1ccc(C2=NC(=Cc3ccc(Br)s3)C(=O)O2)cc1 [F107, N-(4-(4-((5-bromothiophen-2-yl)methylene)-5-oxo-4,5-dihydrooxazol-2-yl)phenyl)acetamide] | 2.9%
22 | O=C1OC(c2ccc3c(c2)CCC3)=NC1=Cc1cccs1 [F29, 2-(2,3-dihydro-1H-indene-5-yl)-4-(thiophen-2-ylmethylene)oxazol-5 (4H)-one] | 3.3%
23 | O=C1OC(/C=C/c2ccccc2)=NC1=Cc1cccs1 [F110, 2-((E)-styryl)-4-(thiophen-2-ylmethylene)oxazol-5 (4H)-one] | 2.9%
24 | COc1ccccc1C1=NC(=Cc2cnn(C(C)(C)C)c2)C(=O)O1 [F136, 4-((1-(tert-butyl)-1H-pyrazol-4-yl)methylene)-2-(2-methoxyphenyl)oxazol-5(4H)-one] | 2.4%

Further lines, results first:

Row | inhibition at 30 µM | Structure (SMILES)
25 | 2.5% | COC(=O)C(=Cc1cccn1-c1ccccc1)NC(=O)c1ccc(C(C)(C)C)cc1 [G14, Methyl 2-(4-(tert-butyl)benzamido)-3-(1-phenyl-1H-pyrrol-2-yl)acrylate]
26 | 94% | CCCCCc1ccc(C(=O)NC(=Cc2ccco2)C(=O)O)cc1 [G35, 3-(Furan-2-yl)-2-(4-pentylbenzamido)acrylate]
27 | 2.5% | O=C(O)C(=Cc1cccs1)NC(=O)c1ccc2c(c1)CCC2 [G38, 2-(2,3-Dihydro-1H-indene-5-carboxamido)-3-(thiophen-2-yl)acrylate]
28 | 2.2% | Cc1ncsc1C=C(NC(=O)c1cccc2ccccc12)C(=O)O [G27, 2-(1-Naphthamido)-3-(4-methylthiazol-5-yl)acrylate]
29 | 48.1% | CCCCc1ccc(C(=O)NC(=Cc2cccs2)C(=O)O)cc1 [G12, 2-(4-Butylbenzamido)-3-(thiophen-2-yl)acrylate]
30 | 3.5% | CCCCc1ccc(C(=O)NC(=Cc2ccc[nH]2)C(=O)OC)cc1 [G11, Methyl 2-(4-butylbenzamido)-3-(1H-pyrrol-2-yl)acrylate]
31 | 1.1% | COC(=O)C(=Cc1ccco1)NC(=O)c1ccc(C(F)(F)F)cc1 [G17, Methyl 3-(furan-2-yl)-2-(4-(trifluoromethyl)benzamido)acrylate]
32 | 29.7% | CCCc1ccc(C(=O)NC(=Cc2cccs2)C(=O)O)cc1 [G30, 2-(4-Propylbenzamido)-3-(thiophen-2-yl)acrylate]

same assay, conditions: compounds showing pendrin inhibitory activity of 50% or more at 30 μM; read-out: IC50

Row | IC50 | Structure (SMILES)
33 | 6.1 ± 0.88 µM | CCCCCc1ccc(C(=O)NC(=Cc2ccco2)C(=O)O)cc1 [G35, 3-(Furan-2-yl)-2-(4-pentylbenzamido)acrylate]
34 | 20.5 ± 1.69 µM | Cc1ncsc1C=C1N=C(c2ccc(C(C)(C)C)cc2)OC1=O [F8, 2-(4-(tert-butyl)phenyl)-4-((4-methylthiazol-5-yl)methylene)oxazol-5 (4H)-one]
